What was measured:
canine lyase = test: Inhibition of canine steroid C17,20 lyase (testicular microsomes); format: biochemical, dog; details: canine; 1 μM; preincubation 40 min
Method: (§1) The activity of the present compounds as inhibitors of steroid C17,20 lyase was established using microsomal preparations of the steroid C17,20 lyase enzyme from human or laboratory animal testes. Human testes used for this purpose were obtained from therapeutic orchiectomies. Specifically, microsomes were isolated from human, cynomolgus monkey, dog, rat or athymic nude mouse testicular tissue. The compound to be tested was dissolved in dimethyl sulfoxide and diluted in 0.05M potassium phosphate buffer to give the desired concentrations of the test compound. The potassium phosphate buffer was at pH 7.4 for the human, monkey and dog lyase assays and at pH 7.2 for the rat and athymic nude mouse lyase assays. Assays also contained 1 mM NADPH, 5 mM glucose-6-phosphate, 1 IU/ml glucose-6-phosphate dehydrogenase (an NADPH regenerating system) and microsomal protein in a total volume of 0.2 mL. Control assays contained all components including dimethyl sulfoxide, but with no test compound. All assays were performed in duplicate. […] Radioactivity in the steroid peaks was measured by a Radiomatic Model HS Flo-One detector.
(§2) The enzyme activity for each incubate was calculated from the percent conversion of substrate to products, and the results were expressed as percent inhibition of control. […] The Ki and kinact for time dependent inhibitors were determined by graphical analysis of Kitz-Wilson plots. […]

rat lyase = test: Inhibition of rat steroid C17,20 lyase (testicular microsomes); format: biochemical; details: rat; 0.1 μM; preincubation 40 min
Method: as §1, §2

nude mouse lyase = test: Inhibition of athymic nude mouse steroid C17,20 lyase (testicular microsomes); format: biochemical; details: nude mouse; 0.01 μM; preincubation 40 min
Method: as §1, §2

[1] = tested on: human prostatic tumor xenographs (PC-82); test: Inhibition of human prostatic tumor growth (PC-82 xenografts in athymic mice); format: in vivo
Method: In this model, human prostatic tumor xenographs (PC-82) are grown in athymic mice. The tumors are serially transplantable, androgen-responsive, slow-growing (i.e. 20-30 days for tumor volume to double) and are moderately differentiated human prostatic adenocarcinoma. These tumors will regress following androgen ablation with a half-life of 18 days (van Weerden, W. M. et al., Prostate 23:149-164 (1993).
The above tumor model of androgen-dependent human prostatic cancer was utilized to evaluate 4-amino-17β-(cyclopropyloxy)androst-4-en-3-one for inhibition of prostatic tumor growth following daily oral treatment at 30 and 100 mg/kg/day (See Table 2). Two control groups were tested, including one which received only the delivery vehicle and another which were bilaterally castrated. Tumor volumes were measured three times per week using a digital caliper using the formula: V (mm^3)=d1 ×(d2)^2 /2 were d1 is the length and d2 the width. The relative percent change in tumor volume is based on the mean tumor volume of the vehicle control groups at week 0 being set equal to 100%.

C[C@]12CC[C@H]3[C@@H](CCC4=C(N)C(=O)CC[C@@]43C)[C@@H]1CC[C@@H]2OC1CC1 [Compound 2, 4-Amino-17β-(cyclopropyloxy)androst-4-en-3-one]
% Inhibition (canine lyase): 57% | % Inhibition (rat lyase): 70% | % Inhibition (nude mouse lyase): 84% | Relative percent tumor volume compared to vehicle control at beginning of timed period ([1]; 30 mg/kg/day oral, 0 weeks): 105% | Tumor volume ([1]; 30 mg/kg/day oral, 0 weeks): 541 ± 71 mm^3 | Relative percent tumor volume compared to vehicle control at beginning of timed period ([1]; 30 mg/kg/day oral, +2 weeks): 150% | Tumor volume ([1]; 30 mg/kg/day oral, +2 weeks): 771 ± 108 mm^3 | Relative percent tumor volume compared to vehicle control at beginning of timed period ([1]; 30 mg/kg/day oral, +4 weeks): 253% | Tumor volume ([1]; 30 mg/kg/day oral, +4 weeks): 1305 ± 309 mm^3 | Relative percent tumor volume compared to vehicle control at beginning of timed period ([1]; 100 mg/kg/day oral, 0 weeks): 83% | Tumor volume ([1]; 100 mg/kg/day oral, 0 weeks): 426 ± 49 mm^3 | Relative percent tumor volume compared to vehicle control at beginning of timed period ([1]; 100 mg/kg/day oral, +2 weeks): 117% | Tumor volume ([1]; 100 mg/kg/day oral, +2 weeks): 601 ± 66 mm^3 | Relative percent tumor volume compared to vehicle control at beginning of timed period ([1]; 100 mg/kg/day oral, +4 weeks): 163% | Tumor volume ([1]; 100 mg/kg/day oral, +4 weeks): 840 ± 86 mm^3 | Inhibition of human prostatic tumor growth (in words) ([1]; daily oral treatment): prolonged inhibition of human prostatic tumor growth

Source: patent US5486511A, “4-amino-17β-(cyclopropyloxy)androst-4-en-3-one, 4-amino-17β-(cyclopropylamino)androst-4-en-3-one and related compounds as C17-20 lyase and 5α-reductase” (Merrell Dow Pharmaceuticals Inc., priority 1994, dated 1996)
